Results as given in publication PMC3168589 (The European journal of neuroscience, 2011).
Entries after “also recorded” stand apart in the source; their conditions may differ. Like-named read-outs stand apart in the source and are kept apart here. The star is where a group is joined. Myristoyl = CCCCCCCCCCCCCC(=O)*

Assays:
[1] = test system: CREB phosphorylation in hippocampal pyramidal neurons; assay: CREB phosphorylation; assay type: cell-based, rat (Sprague-Dawley, 1- to 2-d-old pups); details: for concentrations inducing pCREB signal statistically different from vehicle: CRF F5,184 = 36.59, P < 0.001, UCN F5,175 = 23.00, P < 0.001; for τ of pCREB increase (time course): CRF df = 128, R^2 = 0.58, UCN df = 193, R^2 = 0.3, nonlinear curve fit
[2] = test system: MAPK signaling in human myocytes; details: UCN, but not CRF, ref Grammatopoulos et al., 2000; cited from earlier work
[3] = test system: CRFR1α; details: stably transfected cell lines; ref Grammatopoulos et al., 2000; cited from earlier work
[4] = test system: CRFR1; details: modified yeast cell screen; ref Ladds et al., 2003; cited from earlier work
[5] = test system: CREB phosphorylation in hippocampal neurons; details: 10 μM H89, hippocampal neurons; ref Bayatti et al., 2003; cited from earlier work
[6] = test system: hippocampal neurons; details: 2002, cited from earlier work
[7] = target: CRFR1; details: read-out: Ki for CRFR1, ref Perrin et al., 1993; cited from earlier work
[8] = test system: cAMP in hippocampal pyramidal neurons; assay: cAMP assay; assay type: cell-based, rat (Sprague-Dawley, 1- to 2-d-old pups); details: ISO 10 μM, 15 min, with IBMX 75 μM; positive control; P < 0.001 vs. '0 min'

O=C1OC2(c3ccccc31)c1ccc(O)c(O)c1Oc1c2ccc(O)c1O [gallein]
effect on CRF-induced CREB phosphorylation ([1]; gallein 75 μM, CRF 40 nM, 15 min, F3,117 = 30.17, P < 0.001): blocked | effect on UCN-induced CREB phosphorylation ([1]; gallein 75 μM, UCN 40 nM, 15 min, F3,118 = 21.74, P < 0.001): blocked

rat urocortin I [UCN]
activation of MAPK signaling [2]: activates MAPK signaling | cAMP activation, CRF compared with UCN [3]: induce cAMP activation equally | CRFR1-dependent G protein activation [4]: CRFR1-dependent activation of Gαq | concentrations inducing pCREB signal statistically different from vehicle [1]: ≥ 40 nM | τ of pCREB increase (time course) [1]: ~ 7 min

O=S(=O)(NCCNC/C=C/c1ccc(Br)cc1)c1cccc2cnccc12 [H89]
involvement of PKA in CRF-induced CREB phosphorylation [5]: implicated PKA in CRF-induced CREB phosphorylation | effect on CRF-induced CREB phosphorylation ([1]; H89 2 μM, CRF 40 nM, F3,105 = 44.94, P > 0.05): did not block; also recorded: failed to block | effect on UCN-induced CREB phosphorylation ([1]; H89 2 μM, UCN 40 nM, F3,118 = 27.19, P > 0.05): failed to block; also recorded: did not block

human/rat corticotropin releasing factor [CRF]
cAMP activation, CRF compared with UCN [3]: induce cAMP activation equally | effect on hippocampal neuron excitability ([6]; ref Aldenhoff et al., 1983, Blank et al.): rapidly increases hippocampal neuron excitability | effect on hippocampal LTP ([6]; ref Blank et al.): enhances hippocampal LTP | Ki [7]: 5.2 to 11 nM | concentrations inducing pCREB signal statistically different from vehicle [1]: ≥ 40 nM | τ of pCREB increase (time course) [1]: ~ 10 min

cholera toxin [CTX]
effect on CRF-induced CREB phosphorylation [1]: abolished; also recorded: blocked | effect on UCN-induced CREB phosphorylation [1]: abolished; also recorded: blocked

pertussis toxin [PTX]
effect on UCN-induced CREB phosphorylation ([1]; PTX 500 ng/mL, 18 hr pre-treatment, UCN 40 nM, F3,116 = 40.60, P > 0.05): did not affect

Nc1ncnc2c1ncn2C1CCCO1 (stereo not shown) [SQ22536]
effect on CRF-induced CREB phosphorylation ([1]; SQ22536 90 μM, CRF 40 nM, F3,83 = 22.02, P > 0.05): no effect; also recorded: failed to affect | effect on UCN-induced CREB phosphorylation ([1]; SQ22536 90 μM, UCN 40 nM, F3,113 = 25.34, P > 0.05): no effect; also recorded: failed to affect

COc1cccc(-c2cc(=O)c3ccccc3o2)c1N [PD98059]
effect on CRF-induced CREB phosphorylation ([1]; PD98059 25 μM, CRF 40 nM, F3,86 = 30.25, P > 0.05): failed to affect; also recorded: unaffected | effect on STR-induced CREB phosphorylation ([1]; PD98059 (25 μM), STR (70 nM), F3,122 = 51.88, P > 0.05, data not shown): unaffected | effect on UCN-induced CREB phosphorylation ([1]; PD98059 (25 μM), UCN 40 nM, F3,126 = 31.29, P < 0.001): attenuated; also recorded: attenuated, but did not block

CC(C)NCC(O)c1ccc(O)c(O)c1 (stereo not shown) [ISO, isoproterenol]
cAMP increase [8]: significantly increased cAMP levels

N#CC(=C(/N)Sc1ccccc1N)/C(C#N)=C(/N)Sc1ccccc1N [U0126]
effect on CRF-induced CREB phosphorylation ([1]; U0126 10 μM, CRF 40 nM, F3,78 = 18.69, P > 0.05): failed to affect; also recorded: unaffected | effect on STR-induced CREB phosphorylation ([1]; U0126 (10 μM), STR (70 nM), F3,126 = 43.18, P > 0.05, data not shown): unaffected | effect on UCN-induced CREB phosphorylation ([1]; U0126 (10 μM), UCN 40 nM, F3,128 = 28.68, P < 0.001): attenuated; also recorded: attenuated, but did not block

PKI 14-22 amide myristoylated: second PKA inhibitor (Myristoyl-SGRTGRRNA-NH2; SMILES CCCCCCCCCCCCCC(=O)N[C@@H](CO)C(=O)NCC(=O)N[C@@H](CCCNC(=N)N)C(=O)N[C@H](C(=O)NCC(=O)N[C@@H](CCCNC(=N)N)C(=O)N[C@@H](CCCNC(=N)N)C(=O)N[C@@H](CC(N)=O)C(=O)N[C@@H](C)C(N)=O)[C@@H](C)O; UniProt P61925 14-22, looked up, fragment)
effect on CRF-induced CREB phosphorylation ([1]; PKI 14-22 amide myristoylated 1 μM, CRF 40 nM, F3,133 = 38.91, P > 0.05, data not shown): failed to block | effect on UCN-induced CREB phosphorylation ([1]; PKI 14-22 amide myristoylated 1 μM, UCN 40 nM, F3,113 = 39.24, P > 0.05, data not shown): failed to block

CCCCN(CC)c1nc(C)nc2c1c(C)cn2-c1c(C)cc(C)cc1C [CP154526]
effect on STR-induced CREB phosphorylation ([1]; CP154526 (100 nM) with STR 70 nM, F3,117 = 55.29, P < 0.001): blocked
